The structures appear in SMILES notation. Where a name gives a salt, the structure may show the parent alone.

One assay has as its target c-MET (Homo sapiens, UniProt P08581). The assay is described as follows: MET luminescence-based enzyme assay (Kinase-Glo). Type of assay: biochemical. On the procedure: The subscript designates positive or negative controls. The Z′ score for a robust screening assay should be ≧0.50. The typical threshold=μ+−3*σ+. Any value that falls below the threshold was designated a “hit”.
MET Luminescence-Based Enzyme Assay
MET kinase (see below), Kinase-Glo™ (Promega Cat#V6712).
Negative controls contained 10 μM staurosporine.

The subject of another assay is GTL16 cells. In words: 96-well XTT cell survival assay (GTL16 cells). Type of assay: cell-based. To be noted: Homo sapiens, GTL 16, 72 hours. Here is the method: GTL16 cells were maintained in DMEM Medium supplemented with 10% fetal bovine serum (FBS) 2 mM L-Glutamine and 100 units penicillin/100 μg streptomycin, at 37° C. in 5% CO2.
Compounds were tested in the following assays in duplicate.
96-well XTT assay (GTL16 cells): One day prior to assay the growth media was aspirated off and assay media was added to cells. On the day of the assay, the cells were grown in assay media containing various concentrations of compounds (duplicates) on a 96-well flat bottom plate for 72 hours at 37° C. in 5% CO2. The starting cell number was 5000 cells per well and volume was 120 μl. At the end of the 72-hour incubation, 40 μl of XTT labeling mixture (50:1 solution of sodium 3′-[1-(phenylaminocarbonyl)-3,4-tetrazolium]-bis (4-methoxy-6-nitro) benzene sulfonic acid hydrate and Electron-coupling reagent: PMS (N-methyl dibenzopyrazine methyl sulfate) were added to each well of the plate. After an additional 5 hours of incubation at 37° C., the absorbance reading at 450 nm with a background correction of 650 nm was measured with a spectrophotometer.

Sequence of c-MET (P08581 1078-1345 limits assumed): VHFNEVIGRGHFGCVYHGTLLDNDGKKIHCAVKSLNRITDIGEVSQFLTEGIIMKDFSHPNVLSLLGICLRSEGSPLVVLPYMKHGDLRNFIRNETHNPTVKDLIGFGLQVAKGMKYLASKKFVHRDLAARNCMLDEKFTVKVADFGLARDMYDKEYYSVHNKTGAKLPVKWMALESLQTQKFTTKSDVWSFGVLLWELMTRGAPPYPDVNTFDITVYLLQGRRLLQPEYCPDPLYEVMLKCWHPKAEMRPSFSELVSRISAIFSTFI

Consider `Cc1ccc2nnc(Sc3ccc4ncc(-c5cnn(CCN6CCOCC6)c5)cc4c3)n2n1` [Compound 44, 6-(6-Methyl-[1,2,4]triazolo[4,3-b]pyridazin-3-ylsulfanyl)-3-[1-(2-morpholin-4-yl-ethyl)-1H-pyrazol-4-yl]-quinoline], for which the IC50 at c-MET was less than 100 nM; with GTL16 cells it was not above 100 nM.

In the case of `CNC(=O)c1ccc(-c2ccc3nnc(Sc4cc5cccnc5cc4C)n3n2)cc1F` [Compound 18, 2-Fluoro-N-methyl-4-[3-(7-methyl-quinolin-6-ylsulfanyl)-[1,2,4]triazolo[4,3-b]pyridazin-6-yl]-benzamide], the IC50 at c-MET was less than 100 nM; with GTL16 cells, not above 100 nM.

For `Cc1cc2ncccc2cc1Sc1nnc2ccc(-c3cnn(C)c3)nn12` [Compound 16, 7-Methyl-6-[6-(1-methyl-1H-pyrazol-4-yl)-[1,2,4]triazolo[4,3-b]pyridazin-3-ylsulfanyl]-quinoline], the concentration for half-maximal inhibition (IC50) against c-MET was less than 100 nM; in the assay on GTL16 cells, not above 100 nM.

Consider `CCn1cc(-c2cnc3ccc(Sc4nnc5ccc(C)nn45)cc3c2)cn1` [Compound 66, 3-(1-Ethyl-1H-pyrazol-4-yl)-6-(6-methyl-[1,2,4]triazolo[4,3-b]pyridazin-3-ylsulfanyl)-quinoline], for which the IC50 at c-MET was less than 100 nM; in the assay with GTL16 cells it was not above 100 nM.

Turning to `Cc1ccc2nnc(Sc3ccc4ncc(-c5cnn(CC(=O)O)c5)cc4c3)n2n1` [Compound 42, {4-[6-(6-Methyl-[1,2,4]triazolo[4,3-b]pyridazin-3-ylsulfanyl)-quinolin-3-yl]-pyrazol-1-yl}-acetic acid], the IC50 on c-MET was less than 100 nM; in the assay with GTL16 cells it was 1000 to 10000 nM.

Take `Fc1cccc(-c2ccc3nnc(Sc4ccc5ncccc5c4)n3n2)c1` [Compound 5, 6-[6-(3-Fluoro-phenyl)-[1,2,4]triazolo[4,3-b]pyridazin-3-ylsulfanyl]-quinoline]: the IC50 is less than 100 nM against c-MET and not above 100 nM with GTL16 cells.

As for `CCN1CC(Cn2cc(-c3cnc4ccc(Sc5nnc6ccc(C)nn56)cc4c3)cn2)C1` [Compound 67, 3-[1-(1-Ethyl-azetidin-3-ylmethyl)-1H-pyrazol-4-yl]-6-(6-methyl-[1,2,4]triazolo[4,3-b]pyridazin-3-ylsulfanyl)-quinoline], the IC50 on c-MET is less than 100 nM; in the assay with GTL16 cells, not above 100 nM.

Consider `Cc1ccc2nnc(Sc3ccc4ncc(-c5cnn(CC6CN(C(=O)OC(C)(C)C)C6)c5)cc4c3)n2n1` [Compound 65, 3-{4-[6-(6-Methyl-[1,2,4]triazolo[4,3-b]pyridazin-3-ylsulfanyl)-quinolin-3-yl]-pyrazol-1-ylmethyl}-azetidine-1-carboxylic acid tert-butyl ester], for which the values for the IC50 on c-MET and in the assay with GTL16 cells were less than 100 nM and not above 100 nM, respectively.

For the molecule `Cn1cc(-c2ccc3nnc(Sc4cc5scnc5cc4F)n3n2)cn1` [Compound 15, 3-(5-Fluoro-benzothiazol-6-ylsulfanyl)-6-(1-methyl-1H-pyrazol-4-yl)-[1,2,4]triazolo[4,3-b]pyridazine], the IC50 against c-MET is less than 100 nM; in the assay on GTL16 cells, not above 100 nM.

In the case of `Fc1cccc(-c2ccc3nnc(Sc4ccc5ncsc5c4)n3n2)c1` [Compound 6, 3-(Benzothiazol-6-ylsulfanyl)-6-(3-fluoro-phenyl)-[1,2,4]triazolo[4,3-b]pyridazine], the IC50 at c-MET and in the assay on GTL16 cells was 100 to 1000 nM throughout.

For the molecule `Fc1cccc(-c2ccc3nnc(Sc4ccc5nncn5c4)n3n2)c1` [Compound 7, 6-(3-Fluoro-phenyl)-3-([1,2,4]triazolo[4,3-a]pyridin-6-ylsulfanyl)-[1,2,4]triazolo[4,3-b]pyridazine], the half-inhibitory concentration (IC50) against c-MET and with GTL16 cells was 1000 to 10000 nM each time.

Turning to `Cn1cc(-c2ccc3nnc(Sc4ccc5ncccc5c4[N+](=O)[O-])n3n2)cn1` [Compound 13, 6-[6-(1-Methyl-1H-pyrazol-4-yl)-[1,2,4]triazolo[4,3-b]pyridazin-3-ylsulfanyl]-5-nitro-quinoline], the IC50 against c-MET and with GTL16 cells was 100 to 1000 nM each time.

As for `Cn1cc(-c2ccc3nnc(Sc4ccc5ncncc5c4)n3n2)cn1` [Compound 12, 6-[6-(1-Methyl-1H-pyrazol-4-yl)-[1,2,4]triazolo[4,3-b]pyridazin-3-ylsulfanyl]-quinazoline], the IC50 against c-MET and in the assay with GTL16 cells was 100 to 1000 nM in each case.

Regarding `Cc1ccc2nnc(Sc3ccc4ncc(-c5cnn(C)c5)cc4c3F)n2n1` [Compound 56, 5-Fluoro-3-(1-methyl-1H-pyrazol-4-yl)-6-(6-methyl-[1,2,4]triazolo[4,3-b]pyridazin-3-ylsulfanyl)-quinoline], the values for the IC50 at c-MET and in the assay on GTL16 cells were less than 100 nM and not above 100 nM, respectively.

As to `Cc1ccc2nnc(Sc3c[nH]c4ncc(-c5cnn(C)c5)cc34)n2n1` [Compound 53, 6-Methyl-3-[5-(1-methyl-1H-pyrazol-4-yl)-1H-pyrrolo[2,3-b]pyridin-3-ylsulfanyl]-[1,2,4]triazolo[4,3-b]pyridazine], the figures for the IC50 against c-MET and in the assay on GTL16 cells were less than 100 nM and 100 to 1000 nM, respectively.

On to `Cc1ccc2nnc(Sc3ccc4ncc(-c5cnn(C(C)(C)C(=O)O)c5)cc4c3)n2n1` [Compound 45, 2-Methyl-2-{4-[6-(6-methyl-[1,2,4]triazolo[4,3-b]pyridazin-3-ylsulfanyl)-quinolin-3-yl]-pyrazol-1-yl}-propionic acid], for which the concentration for half-maximal inhibition (IC50) is less than 100 nM at c-MET and 1000 to 10000 nM with GTL16 cells.

As to `Cn1cc(-c2cnc3[nH]cc(Sc4nnc5ccc(-c6cnn(C)c6)nn45)c3c2)cn1` [Compound 46, 6-(1-Methyl-1H-pyrazol-4-yl)-3-[5-(1-methyl-1H-pyrazol-4-yl)-1H-pyrrolo[2,3-b]pyridin-3-ylsulfanyl]-[1,2,4]triazolo[4,3-b]pyridazine], the IC50 was less than 100 nM against c-MET and not above 100 nM in the assay with GTL16 cells.

Take `COc1ccnc2ccc(Sc3nnc4ccc(-c5cnn(C)c5)nn34)cc12` [Compound 26, 4-Methoxy-6-[6-(1-methyl-1H-pyrazol-4-yl)-[1,2,4]triazolo[4,3-b]pyridazin-3-ylsulfanyl]-quinoline]: the values for the IC50 at c-MET and with GTL16 cells were less than 100 nM and not above 100 nM, respectively.

`Fc1cccc(-c2cnc3nnc(Sc4ccc5ncccc5c4)n3n2)c1` [Compound 9, 6-[6-(3-Fluoro-phenyl)-[1,2,4]triazolo[4,3-b][1,2,4]triazin-3-ylsulfanyl]-quinoline]: the IC50 on c-MET is less than 100 nM; with GTL16 cells it was not above 100 nM.

As for `Cn1cc(-c2ccc3nnc(Sc4ccc5ncccc5c4F)n3n2)cn1` [Compound 55, 5-Fluoro-6-[6-(1-methyl-1H-pyrazol-4-yl)-[1,2,4]triazolo[4,3-b]pyridazin-3-ylsulfanyl]-quinoline], the IC50 is less than 100 nM against c-MET and not above 100 nM with GTL16 cells.

Take `CNc1ccc2nnc(Sc3ccc4ncc(-c5cnn(C)c5)cc4c3)n2n1` [Compound 68, Methyl-{3-[3-(1-methyl-1H-pyrazol-4-yl)-quinolin-6-ylsulfanyl]-[1,2,4]triazolo[4,3-b]pyridazin-6-yl}-amine]: the figures for the IC50 against c-MET and in the assay on GTL16 cells were less than 100 nM and not above 100 nM, respectively.

On to `Cc1ccc2nnc(Sc3ccc4ncc(-c5cn[nH]c5)cc4c3)n2n1` [Compound 59, 6-(6-Methyl-[1,2,4]triazolo[4,3-b]pyridazin-3-ylsulfanyl)-3-(1H-pyrazol-4-yl)-quinoline], for which the half-maximal inhibitory concentration (IC50) on c-MET was less than 100 nM; in the assay with GTL16 cells, 100 to 1000 nM.

`Cn1cc(-c2ccc3nnc(Sc4ccc5ncc(N)cc5c4)n3n2)cn1` [Compound 33, 6-[6-(1-Methyl-1H-pyrazol-4-yl)-[1,2,4]triazolo[4,3-b]pyridazin-3-ylsulfanyl]-quinolin-3-ylamine, trifluoroacetic acid salt]: the figures for the half-maximal inhibitory concentration (IC50) against c-MET and with GTL16 cells were less than 100 nM and not above 100 nM, respectively.

As to `Cn1cc(-c2ccc3nnc(Sc4cc5cccnc5cc4F)n3n2)cn1` [Compound 10, 7-Fluoro-6-[6-(1-methyl-1H-pyrazol-4-yl)-[1,2,4]triazolo[4,3-b]pyridazin-3-ylsulfanyl]-quinoline], the results for the IC50 at c-MET and in the assay with GTL16 cells were less than 100 nM and not above 100 nM, respectively.

Turning to `Cc1ccc2nnc(Sc3ccc4ncc(-c5cnn(C6CNC6)c5)cc4c3)n2n1` [Compound 62, 3-(1-Azetidin-3-yl-1H-pyrazol-4-yl)-6-(6-methyl-[1,2,4]triazolo[4,3-b]pyridazin-3-ylsulfanyl)-quinoline], the half-inhibitory concentration (IC50) was less than 100 nM at c-MET and not above 100 nM with GTL16 cells.

As for `CNC(=O)c1ccc(-c2ccc3nnc(Sc4cc5cccnc5cc4F)n3n2)cc1F` [Compound 17, 2-Fluoro-4-[3-(7-fluoro-quinolin-6-ylsulfanyl)-[1,2,4]triazolo[4,3-b]pyridazin-6-yl]-N-methyl-benzamide], the IC50 is less than 100 nM against c-MET and not above 100 nM in the assay with GTL16 cells.

With `c1ccc(-c2ccc3nnc(Sc4ccc5ncccc5c4)n3n2)cc1` [Compound 1, 6-(6-Phenyl-[1,2,4]triazolo[4,3-b]pyridazin-3-ylsulfanyl)-quinoline], the values for the half-inhibitory concentration (IC50) on c-MET and in the assay with GTL16 cells were less than 100 nM and not above 100 nM, respectively.

For the molecule `CCn1cnc2ccc(Sc3nnc4ccc(-c5cnn(C)c5)nn34)cc21` [Compound 30, 3-(3-Ethyl-3H-benzoimidazol-5-ylsulfanyl)-6-(1-methyl-1H-pyrazol-4-yl)-[1,2,4]triazolo[4,3-b]pyridazine], the IC50 against c-MET is less than 100 nM; in the assay with GTL16 cells, not above 100 nM.
